Experimental data from ChEMBL document CHEMBL1201862, “PubChem BioAssay data set” (2004).
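Briefly, cells in 96-well plates were exposed to five compound concentrations for 48 h, and endpoints were estimated by linear interpolation. The concentration for 50% growth inhibition is given as GI50.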 Active and inactive are the calls of the source. Rule as the data show it: active = GI50 up to about 1.1 µM and inactive = higher.

Assays:
Test in all cases: NCI tumour cell line growth inhibition, 48 h
A498 = tested on: A498
A549 = tested on: A549
ACHN = tested on: ACHN
HOP-92 = tested on: HOP-92
HT-29 = tested on: HT-29
K562 = tested on: K562
MOLT-4 = tested on: MOLT-4
NCI-H460 = tested on: NCI-H460
SF-295 = tested on: SF-295
SF-539 = tested on: SF-539
SK-MEL-28 = tested on: SK-MEL-28
SK-MEL-2 = tested on: SK-MEL-2
SNB-19 = tested on: SNB-19
U-251 = tested on: U-251
UO-31 = tested on: UO-31
Hs-578T = tested on: Hs-578T
MCF7 = tested on: MCF7
PC-3 = tested on: PC-3
T47D = tested on: T47D
MDA-N = tested on: MDA-N

Measured: GI50

COC(=O)CC1CC2(C(=O)OC)c3[nH]c4ccccc4c3CCN2C1=O (centres undefined)
inactive: A498 > 100 µM | A549 > 100 µM | ACHN > 100 µM | HOP-92 > 100 µM | HT-29 > 100 µM | K562 > 100 µM | MOLT-4 > 100 µM | NCI-H460 > 100 µM | SF-295 > 100 µM | SF-539 > 100 µM | SK-MEL-28 > 100 µM | SK-MEL-2 > 100 µM | SNB-19 > 100 µM | U-251 > 100 µM | UO-31 > 100 µM

CC(=O)Nc1ccc(C2=N/C(=C\c3ccc(Cl)cc3)C(=O)O2)cc1
inactive: A498 > 100 µM | A549 > 100 µM | ACHN 27.4 µM | HOP-92 33.7 µM | HT-29 60.7 µM | K562 19.5 µM | MOLT-4 20.7 µM | NCI-H460 69.5 µM | SF-295 > 100 µM | SF-539 > 100 µM | SK-MEL-28 > 100 µM | SK-MEL-2 > 100 µM | SNB-19 63.7 µM | U-251 38.5 µM | UO-31 26.4 µM

NC(=S)N/N=C(\Cc1nc2ccc(Cl)cc2nc1O)C(=O)Nc1ccc(Cl)cc1
inactive: A549 > 100 µM | ACHN > 100 µM | HOP-92 40.3 µM | HT-29 > 100 µM | Hs-578T > 100 µM | MCF7 > 100 µM | MOLT-4 > 100 µM | NCI-H460 > 100 µM | PC-3 > 100 µM | SF-295 > 100 µM | SF-539 > 100 µM | SK-MEL-28 > 100 µM | SK-MEL-2 > 100 µM | SNB-19 > 100 µM | U-251 > 100 µM | UO-31 40 µM

CCc1cccc(C)c1NC(=S)NC(=O)c1ccccc1C(=O)NC(=S)Nc1c(C)cccc1CC
inactive: A498 > 100 µM | A549 90.4 µM | ACHN > 100 µM | HOP-92 19.1 µM | HT-29 43 µM | K562 38.9 µM | MOLT-4 53.7 µM | NCI-H460 67.8 µM | SF-295 57.7 µM | SF-539 > 100 µM | SK-MEL-28 > 100 µM | SK-MEL-2 > 100 µM | SNB-19 > 100 µM | U-251 67.6 µM | UO-31 > 100 µM

CC(C)c1cccc(C(C)C)c1NC(=O)C(=O)C(C(=O)c1ccc2ccccc2c1)C1OC(=O)c2ccccc21 (centres undefined)
inactive: A498 34 µM | A549 > 100 µM | ACHN > 100 µM | HOP-92 27.9 µM | HT-29 > 100 µM | K562 > 100 µM | MOLT-4 > 100 µM | NCI-H460 > 100 µM | SF-295 > 100 µM | SF-539 > 100 µM | SK-MEL-28 > 100 µM | SK-MEL-2 > 100 µM | SNB-19 > 100 µM | U-251 > 100 µM | UO-31 47.8 µM

CC(SC(=S)N1CCCCC1)C(=O)Nc1nnc(-c2ccc(Cl)cc2)o1 (centres undefined)
inactive: A498 22.9 µM | A549 30.3 µM | ACHN 30.5 µM | HOP-92 45.8 µM | HT-29 23 µM | Hs-578T 40.6 µM | K562 41.4 µM | MCF7 25.8 µM | NCI-H460 27.2 µM | PC-3 24.2 µM | SF-539 58.7 µM | SK-MEL-28 63.7 µM | SK-MEL-2 21.7 µM | SNB-19 31.4 µM | T47D 36.8 µM | U-251 24.7 µM | UO-31 17.8 µM

O=c1c2cc([N+](=O)[O-])ccc2[nH]n1Cc1ccccn1
inactive: A498 > 100 µM | A549 > 100 µM | ACHN > 100 µM | HOP-92 > 100 µM | HT-29 > 100 µM | Hs-578T > 100 µM | K562 > 100 µM | MDA-N > 100 µM | MOLT-4 > 100 µM | NCI-H460 > 100 µM | PC-3 > 100 µM | SF-295 > 100 µM | SF-539 > 100 µM | SK-MEL-28 > 100 µM | SNB-19 > 100 µM | U-251 > 100 µM | UO-31 > 100 µM

O=C(CN1CCN(Cc2ccccc2)CC1)c1ccc2[nH]c(=O)oc2c1
inactive: A498 > 100 µM | A549 > 100 µM | ACHN > 100 µM | HOP-92 53.1 µM | HT-29 > 100 µM | K562 > 100 µM | MCF7 > 100 µM | MDA-N > 100 µM | MOLT-4 > 100 µM | NCI-H460 > 100 µM | PC-3 > 100 µM | SF-295 > 100 µM | SF-539 > 100 µM | SK-MEL-28 > 100 µM | SK-MEL-2 > 100 µM | SNB-19 > 100 µM | T47D > 100 µM | U-251 > 88.7 µM | UO-31 60.7 µM

Cc1ccc(S(=O)(=O)/N=C(\NN)Nc2ccc(Cl)cc2)cc1
inactive: A498 > 100 µM | A549 > 100 µM | ACHN > 100 µM | HOP-92 > 100 µM | HT-29 > 100 µM | K562 > 100 µM | MCF7 > 100 µM | MDA-N > 100 µM | MOLT-4 > 100 µM | NCI-H460 > 100 µM | PC-3 > 100 µM | SF-295 > 100 µM | SF-539 35.2 µM | SK-MEL-28 > 100 µM | SK-MEL-2 > 100 µM | SNB-19 > 100 µM | T47D 88.3 µM | U-251 > 100 µM | UO-31 > 100 µM

CC1(C)CC(=O)C(CC2C(=O)c3ccccc3C2=O)C(=O)C1C(=O)C(=O)Nc1cccc2ccc(O)cc12 (centres undefined)
inactive: A498 20.8 µM | A549 > 100 µM | ACHN > 100 µM | HOP-92 70.3 µM | HT-29 > 100 µM | Hs-578T 74.6 µM | K562 40.9 µM | MCF7 32.2 µM | MOLT-4 53.5 µM | NCI-H460 > 100 µM | PC-3 51.4 µM | SF-295 92.3 µM | SF-539 > 100 µM | SK-MEL-28 > 100 µM | SK-MEL-2 > 100 µM | SNB-19 > 100 µM | T47D 27.4 µM | U-251 > 100 µM | UO-31 33.8 µM

CSc1cc(C(C)(C)C)ccc1C(O)c1ccc(C(C)(C)C)cc1SC
inactive: A498 13.2 µM | A549 10.6 µM | ACHN 11.5 µM | HOP-92 14.5 µM | HT-29 5.79 µM | K562 7.14 µM | MOLT-4 3.35 µM | NCI-H460 8.2 µM | SF-295 10.5 µM | SF-539 16 µM | SK-MEL-28 17.5 µM | SK-MEL-2 15.1 µM | SNB-19 16 µM | U-251 14.1 µM | UO-31 6.37 µM

Cc1nc2ccc(F)cc2c2c1CCS2
inactive: A498 > 100 µM | A549 > 100 µM | ACHN 73.6 µM | HOP-92 94.6 µM | HT-29 71.8 µM | Hs-578T 43 µM | K562 34.6 µM | MCF7 56.4 µM | MOLT-4 38.1 µM | NCI-H460 48.2 µM | PC-3 41.1 µM | SF-295 94.4 µM | SF-539 > 100 µM | SK-MEL-28 80.5 µM | SNB-19 30.3 µM | T47D 33.7 µM | U-251 50.4 µM | UO-31 65.9 µM

CCc1cccc(C)c1NC(=O)C(=O)CC(=O)c1ccc(Cl)s1
inactive: A498 > 100 µM | A549 > 100 µM | ACHN > 100 µM | HOP-92 > 100 µM | HT-29 > 100 µM | K562 > 100 µM | MOLT-4 > 100 µM | NCI-H460 > 100 µM | SF-295 > 100 µM | SF-539 > 100 µM | SK-MEL-28 > 100 µM | SK-MEL-2 > 100 µM | SNB-19 > 100 µM | U-251 > 100 µM | UO-31 > 100 µM

CC(C)[Si](OCC1CC(C#N)OC(C)(C)O1)(C(C)C)C(C)C (centres undefined)
inactive: A498 6.3 µM | A549 30.8 µM | ACHN 16 µM | HOP-92 21.7 µM | HT-29 14.6 µM | K562 19 µM | MOLT-4 19.6 µM | NCI-H460 16.5 µM | SF-295 14.9 µM | SF-539 27.1 µM | SK-MEL-28 39.4 µM | SK-MEL-2 16.2 µM | SNB-19 22 µM | U-251 15.8 µM | UO-31 20.7 µM

C=C1CC[C@@H]2C(C)(C)C(O)CCC2(C)C1COc1ccc2ccc(=O)oc2c1 (some centres undefined)
inactive: A498 19.9 µM | A549 17.2 µM | ACHN 16.8 µM | HOP-92 17.3 µM | HT-29 18.9 µM | K562 16.6 µM | MOLT-4 14.7 µM | NCI-H460 10.5 µM | SF-295 16.2 µM | SF-539 16.8 µM | SK-MEL-28 18.1 µM | SK-MEL-2 17.4 µM | SNB-19 18.3 µM | U-251 17.7 µM | UO-31 16 µM

COc1c(O)c(OC)c2oc(-c3ccc(O)c(O)c3)c(OC)c(=O)c2c1O
inactive: A498 31.6 µM | A549 35.6 µM | ACHN 31.4 µM | HOP-92 30.5 µM | HT-29 30.7 µM | K562 18.5 µM | MCF7 4.1 µM | MDA-N 37.3 µM | MOLT-4 28.4 µM | NCI-H460 35.9 µM | PC-3 38.9 µM | SF-295 39.3 µM | SF-539 14.6 µM | SK-MEL-28 18.7 µM | SK-MEL-2 5.42 µM | SNB-19 53.8 µM | T47D 3.28 µM | U-251 16.9 µM | UO-31 28.1 µM
